Test results from publication PMC7872314, “Modeling Bioavailable Concentrations in Zebrafish Cell Lines and Embryos Increases the Correlation of Toxicity Potencies across Test Systems” (Environmental Science & Technology, 2020).
Like-named read-outs stand apart in the source and are kept apart here.

Key:
[1] = tested on: ZFL (hepatocytes) cell line; test: cells; type: cell-based, zebrafish (Danio rerio); conditions: Danio rerio, Hepatocyte
[2] = tested on: ZF4 (fibroblasts) cell line; test: ATP assay (ATP/LDH multiplex), ATP metabolism; type: cell-based, zebrafish (Danio rerio); conditions: Danio rerio, Fibroblast
[3] = tested on: zebrafish embryos; set-up: method as in earlier work; conditions: nominal, cited from earlier work
[4] = tested on: ZF4 and ZFL cell lines; test: Cytotoxicity assays, all endpoints, both cell lines (mean/range); type: cell-based, zebrafish (Danio rerio); conditions: 48 h
[5] = tested on: ZF4 (fibroblasts) cell line; test: Neutral red, fluorescence (NRf), AB/CFDA/NR multiplex, lysosome stability; type: cell-based, zebrafish (Danio rerio); conditions: Danio rerio, Fibroblast
[6] = tested on: ZFL (hepatocytes) cell line; test: cells; type: cell-based, zebrafish (Danio rerio); conditions: Danio rerio, Hepatocyte; remark: listed apart in the source
[7] = tested on: ZF4 (fibroblasts) cell line; test: MTS assay (MTS/BCA multiplex), NAD(P)H metabolism; type: cell-based, zebrafish (Danio rerio); conditions: Danio rerio, Fibroblast
[8] = tested on: ZFL (hepatocytes) cell line; test: cells; type: cell-based, zebrafish (Danio rerio); conditions: Danio rerio, Hepatocyte; remark: listed apart in the source
[9] = tested on: ZF4 (fibroblasts) cell line; test: BCA assay (MTS/BCA multiplex), protein amount; type: cell-based, zebrafish (Danio rerio); conditions: Danio rerio, Fibroblast
[10] = tested on: ZF4 (fibroblasts) cell line; test: CFDA endpoint of AB/CFDA/NR multiplex, membrane stability; type: cell-based, zebrafish (Danio rerio); conditions: Danio rerio, Fibroblast
[11] = tested on: ZFL (hepatocytes) cell line; test: cells; type: cell-based, zebrafish (Danio rerio); conditions: Danio rerio, Hepatocyte; remark: listed apart in the source
[12] = tested on: ZF4 (fibroblasts) cell line; test: Neutral red, absorbance (NRa), AB/CFDA/NR multiplex, lysosome stability; type: cell-based, zebrafish (Danio rerio); conditions: Danio rerio, Fibroblast
[13] = ref Comptox, PubChem or DrugBank; cited from earlier work
[14] = tested on: ZF4 (fibroblasts) cell line; test: alamarBlue (AB) endpoint of AB/CFDA/NR multiplex, cellular respiration; type: cell-based, zebrafish (Danio rerio); conditions: Danio rerio, Fibroblast
[15] = tested on: zebrafish embryos; test: animal or person; type: in vivo, zebrafish (Danio rerio)
[16] = tested on: ZFL (hepatocytes) cell line; test: cells; type: cell-based, zebrafish (Danio rerio); conditions: Danio rerio, Hepatocyte; remark: listed apart in the source
[17] = tested on: ZFL (hepatocytes) cell line; test: cells; type: cell-based, zebrafish (Danio rerio); conditions: Danio rerio, Hepatocyte; remark: listed apart in the source
[18] = tested on: ZFL (hepatocytes) cell line; test: cells; type: cell-based, zebrafish (Danio rerio); conditions: Danio rerio, Hepatocyte; remark: listed apart in the source

Work on `CCC(C)C1OC2(CCC1C)CC1CC(CC=C(C)C(OC3CC(OC)C(OC4CC(OC)C(O)C(C)O4)C(C)O3)C(C)C=CC=C3COC4C(O)C(C)=CC(C(=O)O1)C34O)O2` (stereo not drawn) [Ivermectin, ivermectin] yielded an IC50 ([1]; ATP - ZFL, log10 of IC50, read-out: LogIC50 (converted)) of 2.61 µM, an IC50 ([1]; ATP - ZFL, read-out: IC50) of 2.61 µM and an IC50 ([1]; ZFL, 48 h exposure, nominal, log10, read-out: logIC50 (log10 IC50;nom) ATP (converted)) of 2.63 µM. It also gave an IC50 ([1]; ZFL, 48 h exposure, nominal, read-out: IC50;nom ATP) of 2.61 µM, an IC50 ([2]; ATP - ZF4, log10 of IC50, read-out: LogIC50 (converted)) of 15.4 µM and an IC50 ([2]; ATP - ZF4, read-out: IC50) of 15.4 µM. For the same compound, the IC50 ([2]; ZF4, 48 h exposure, nominal, log10, read-out: logIC50 (log10 IC50;nom) ATP (converted)) was 15.5 µM, the IC50 ([2]; ZF4, 48 h exposure, nominal, read-out: IC50;nom ATP) was 15.4 µM and the EC50 ([3]; 144 hpf, converted, listed as Ive) was 0.503 µM. For the same compound, the “logEC50 144 hpf” value ([3]; log10) was -6.299 M, the IC50 ([4]; Danio rerio, read-out: Mean log IC50nom, mean of all cytotoxicity endpoints (without LDH) in ZF4 and ZFL, 48 h, log10 (converted)) was 9.12 µM and the “Mean log IC50nom” value ([4]; mean of all cytotoxicity endpoints (without LDH) in ZF4 and ZFL, log10, listed as Ive) was -5.042 M. The IC50 ([5]; NR-fluo - ZF4, log10 of IC50, read-out: LogIC50 (converted)) was 18.1 µM, the IC50 ([5]; NR-fluo - ZF4, read-out: IC50) was 18.1 µM and the IC50 ([5]; ZF4, 48 h exposure, nominal, log10, read-out: logIC50 (log10 IC50;nom) NRf (converted)) was 18.2 µM. It also gave an IC50 ([5]; ZF4, 48 h exposure, nominal, read-out: IC50;nom NRf) of 18.1 µM, an IC50 ([6]; CFDA - ZFL, log10 of IC50, read-out: LogIC50 (converted)) of 14.1 µM and an IC50 ([6]; CFDA - ZFL, read-out: IC50) of 14.1 µM. For the same compound, the IC50 ([6]; ZFL, 48 h exposure, nominal, log10, read-out: logIC50 (log10 IC50;nom) CFDA (converted)) was 14.1 µM, the IC50 ([6]; ZFL, 48 h exposure, nominal, read-out: IC50;nom CFDA) was 14.1 µM and the IC50 ([7]; MTS - ZF4, log10 of IC50, read-out: LogIC50 (converted)) was 13.6 µM. The IC50 ([7]; MTS - ZF4, read-out: IC50) was 13.6 µM, the IC50 ([7]; ZF4, 48 h exposure, nominal, log10, read-out: logIC50 (log10 IC50;nom) MTS (converted)) was 13.5 µM and the IC50 ([7]; ZF4, 48 h exposure, nominal, read-out: IC50;nom MTS) was 13.6 µM. It also gave an IC50 ([8]; MTS - ZFL, log10 of IC50, read-out: LogIC50 (converted)) of 10.2 µM, an IC50 ([8]; MTS - ZFL, read-out: IC50) of 10.2 µM and an IC50 ([8]; ZFL, 48 h exposure, nominal, log10, read-out: logIC50 (log10 IC50;nom) MTS (converted)) of 10.2 µM. For the same compound, the IC50 ([8]; ZFL, 48 h exposure, nominal, read-out: IC50;nom MTS) was 10.2 µM, the IC50 ([9]; BCA - ZF4, log10 of IC50, read-out: LogIC50 (converted)) was 16.2 µM and the IC50 ([9]; BCA - ZF4, read-out: IC50) was 16.2 µM. It also gave an IC50 ([9]; ZF4, 48 h exposure, nominal, log10, read-out: logIC50 (log10 IC50;nom) BCA (converted)) of 16.2 µM, an IC50 ([9]; ZF4, 48 h exposure, nominal, read-out: IC50;nom BCA) of 16.2 µM and an IC50 ([10]; CFDA - ZF4, log10 of IC50, read-out: LogIC50 (converted)) of 18.2 µM. The IC50 ([10]; CFDA - ZF4, read-out: IC50) was 18.2 µM, the IC50 ([10]; ZF4, 48 h exposure, nominal, log10, read-out: logIC50 (log10 IC50;nom) CFDA (converted)) was 18.2 µM and the IC50 ([10]; ZF4, 48 h exposure, nominal, read-out: IC50;nom CFDA) was 18.2 µM. The IC50 ([11]; AB - ZFL, log10 of IC50, read-out: LogIC50 (converted)) was 6.58 µM, the IC50 ([11]; AB - ZFL, read-out: IC50) was 6.58 µM and the IC50 ([11]; ZFL, 48 h exposure, nominal, log10, read-out: logIC50 (log10 IC50;nom) AB (converted)) was 6.61 µM. For the same compound, the IC50 ([11]; ZFL, 48 h exposure, nominal, read-out: IC50;nom AB) was 6.58 µM, the IC50 ([12]; NR-abs - ZF4, log10 of IC50, read-out: LogIC50 (converted)) was 15.4 µM and the IC50 ([12]; NR-abs - ZF4, read-out: IC50) was 15.4 µM. The IC50 ([12]; ZF4, 48 h exposure, nominal, log10, read-out: logIC50 (log10 IC50;nom) NRa (converted)) was 15.5 µM, the IC50 ([12]; ZF4, 48 h exposure, nominal, read-out: IC50;nom NRa) was 15.4 µM and the Physiological charge [13] was 0. For the same compound, the “Water Solubility” value [13] was “insoluble”, the logKow [13] was 5.83 and the “pKa (Strongest Acidic)” value [13] was 12.47. For the same compound, the “pKa (Strongest Basic)” value [13] was -3.4, the IC50 ([14]; AB - ZF4, log10 of IC50, read-out: LogIC50 (converted)) was 10.2 µM and the IC50 ([14]; AB - ZF4, read-out: IC50) was 10.2 µM. For the same compound, the IC50 ([14]; ZF4, 48 h exposure, nominal, log10, read-out: logIC50 (log10 IC50;nom) AB (converted)) was 10.2 µM, the IC50 ([14]; ZF4, 48 h exposure, nominal, read-out: IC50;nom AB) was 10.2 µM and the “difference in toxicity (EC50;nom) between 48 hpf and 144 hpf” value ([15]; 48 hpf time point less sensitive than 144 hpf) was “marginally more toxic”. For the same compound, the “log EC50;nom (mFET)” value ([15]; 48 hpf, nominal, log10, listed as Ive) was -5.766 M, the EC50 ([15]; Danio rerio, 48 hpf, nominal, log10, read-out: log EC50;nom (mFET) (converted)) was 1.7 µM and the EC50 ([15]; Danio rerio, 48 hpf, nominal, read-out: EC50;nom (embryo)) was 1.5 µg/mL. For the same compound, the EC50 ([15]; Danio rerio, read-out: EC50 48hpf) was 1.71 µM, the EC50 ([15]; Danio rerio, read-out: EC50;nom (mFET)) was 1.71 µM and the EC50 ([15]; zebrafish, in vivo, listed as Ive, read-out: EC50;nom (mFET)) was 1.71 µM. It also gave an IC50 ([16]; BCA - ZFL, log10 of IC50, read-out: LogIC50 (converted)) of 7.08 µM, an IC50 ([16]; BCA - ZFL, read-out: IC50) of 7.08 µM and an IC50 ([16]; ZFL, 48 h exposure, nominal, log10, read-out: logIC50 (log10 IC50;nom) BCA (converted)) of 7.08 µM. For the same compound, the IC50 ([16]; ZFL, 48 h exposure, nominal, read-out: IC50;nom BCA) was 7.08 µM, the IC50 ([17]; NR-abs - ZFL, log10 of IC50, read-out: LogIC50 (converted)) was 2.55 µM and the IC50 ([17]; NR-abs - ZFL, read-out: IC50) was 2.55 µM. For the same compound, the IC50 ([17]; ZFL, 48 h exposure, nominal, log10, read-out: logIC50 (log10 IC50;nom) NRa (converted)) was 2.57 µM, the IC50 ([17]; ZFL, 48 h exposure, nominal, read-out: IC50;nom NRa) was 2.55 µM and the IC50 ([18]; NR-fluo - ZFL, log10 of IC50, read-out: LogIC50 (converted)) was 3.34 µM. The IC50 ([18]; NR-fluo - ZFL, read-out: IC50) was 3.34 µM, the IC50 ([18]; ZFL, 48 h exposure, nominal, log10, read-out: logIC50 (log10 IC50;nom) NRf (converted)) was 3.31 µM and the IC50 ([18]; ZFL, 48 h exposure, nominal, read-out: IC50;nom NRf) was 3.34 µM.
